Ten compounds from patent US9328070B2, “Ethynyl derivatives” (Hoffmann-La Roche Inc., priority 2012, dated 2016) can be followed below.

The target of experiment [1] is T1, human mGlu5a receptor (Homo sapiens (Human), UniProt P41594). Description: Intracellular Ca2+ mobilization assay (mGlu5 PAM assay). In kind it is cell-based. The settings on record: for EC50 (nM) mGlu5 PAM assay / mGlu5 PAM EC50 [nM]: HEK-293 cells, human mGlu5a, glutamate at EC20; for Activity profile: PAM = positive allosteric modulator, NAM = negative allosteric modulator; for Efficacy [%]: maximal response in % of the maximal stimulatory effect of saturating L-glutamate. The procedure:
A monoclonal HEK-293 cell line stably transfected with a cDNA encoding for the human mGlu5a receptor was generated; for the work with mGlu5 Positive Allosteric Modulators (PAMs), a cell line with low receptor expression levels and low constitutive receptor activity was selected to allow the differentiation of agonistic versus PAM activity. Cells were cultured according to standard protocols (Freshney, 2000) in Dulbecco's Modified Eagle Medium with high glucose supplemented with 1 mM glutamine, 10% (vol/vol) heat-inactivated bovine calf serum, Penicillin/Streptomycin, 50 μg/ml hygromycin and 15 μg/ml blasticidin (all cell culture reagents and antibiotics from Invitrogen, Basel, Switzerland).
About 24 hrs before an experiment, 5×10^4 cells/well were seeded in poly-D-lysine coated, black/clear-bottomed 96-well plates. The cells were loaded with 2.5 μM Fluo-4AM in loading buffer (1×HBSS, 20 mM HEPES) for 1 hr at 37° C. and washed five times with loading buffer. The cells were transferred into a Functional Drug Screening System 7000 (Hamamatsu, Paris, France), and 11 half logarithmic serial dilutions of test compound at 37° C. were added and the cells were incubated for 10-30 min. with on-line recording of fluorescence. Following this pre-incubation step, the agonist L-glutamate was added to the cells at a concentration corresponding to EC20 (typically around 80 μM) with on-line recording of fluorescence; in order to account for day-to-day variations in the responsiveness of cells, the EC20 of glutamate was determined immediately ahead of each experiment by recording of a full dose-response curve of glutamate.
Responses were measured as peak increase in fluorescence minus basal (i.e. fluorescence without addition of L-glutamate), normalized to the maximal stimulatory effect obtained with saturating concentrations of L-glutamate. Graphs were plotted with the % maximal stimulatory using XLfit, a curve fitting program that iteratively plots the data using Levenburg Marquardt algorithm. The single site competition analysis equation used was y=A+((B−A)/(1+((x/C)D))), where y is the % maximal stimulatory effect, A is the minimum y, B is the maximum y, C is the EC50, x is the log 10 of the concentration of the competing compound and D is the slope of the curve (the Hill Coefficient). From these curves the EC50 (concentration at which half maximal stimulation was achieved), the Hill coefficient as well as the maximal response in % of the maximal stimulatory effect obtained with saturating concentrations of L-glutamate were calculated.
A depression of the signal observed after addition of the EC20 concentration of L-glutamate was indicative of an inhibitory activity of the test compound.

Experiment [2] has as its target T1, human mGlu5a receptor. Description: MPEP binding assay ([3H]MPEP displacement). The note with it: [3H]MPEP 2 nM, 1 h at 4° C., EBNA cell membranes. The procedure:
For binding experiments, cDNA encoding human mGlu 5a receptor was transiently transfected into EBNA cells using a procedure described by Schlaeger and Christensen [Cytotechnology 15:1-13 (1998)]. Cell membrane homogenates were stored at −80° C. until the day of assay where upon they were thawed and resuspended and polytronised in 15 mM Tris-HCl, 120 mM NaCl, 100 mM KCl, 25 mM CaCl2, 25 mM MgCl2 binding buffer at pH 7.4 to a final assay concentration of 20 μg protein/well.
Saturation isotherms were determined by addition of twelve [^3H]MPEP concentrations (0.04-100 nM) to these membranes (in a total volume of 200 μl) for 1 h at 4° C. Competition experiments were performed with a fixed concentration of [^3H]MPEP (2 nM) and IC50 values of test compounds evaluated using 11 concentrations (0.3-10,000 nM). Incubations were performed for 1 h at 4° C.
At the end of the incubation, membranes were filtered onto unifilter (96-well white microplate with bonded GF/C filter preincubated 1 h in 0.1% PEI in wash buffer, Packard BioScience, Meriden, Conn.) with a Filtermate 96 harvester (Packard BioScience) and washed 3 times with cold 50 mM Tris-HCl, pH 7.4 buffer. Nonspecific binding was measured in the presence of 10 μM MPEP. The radioactivity on the filter was counted (3 min) on a Packard Top-count microplate scintillation counter with quenching correction after addition of 45 μl of microscint 40 (Canberra Packard S.A., Zurich, Switzerland) and shaking for 20 min.

T1 sequence (P41594 other isoform, or with tags, fused parts or gaps): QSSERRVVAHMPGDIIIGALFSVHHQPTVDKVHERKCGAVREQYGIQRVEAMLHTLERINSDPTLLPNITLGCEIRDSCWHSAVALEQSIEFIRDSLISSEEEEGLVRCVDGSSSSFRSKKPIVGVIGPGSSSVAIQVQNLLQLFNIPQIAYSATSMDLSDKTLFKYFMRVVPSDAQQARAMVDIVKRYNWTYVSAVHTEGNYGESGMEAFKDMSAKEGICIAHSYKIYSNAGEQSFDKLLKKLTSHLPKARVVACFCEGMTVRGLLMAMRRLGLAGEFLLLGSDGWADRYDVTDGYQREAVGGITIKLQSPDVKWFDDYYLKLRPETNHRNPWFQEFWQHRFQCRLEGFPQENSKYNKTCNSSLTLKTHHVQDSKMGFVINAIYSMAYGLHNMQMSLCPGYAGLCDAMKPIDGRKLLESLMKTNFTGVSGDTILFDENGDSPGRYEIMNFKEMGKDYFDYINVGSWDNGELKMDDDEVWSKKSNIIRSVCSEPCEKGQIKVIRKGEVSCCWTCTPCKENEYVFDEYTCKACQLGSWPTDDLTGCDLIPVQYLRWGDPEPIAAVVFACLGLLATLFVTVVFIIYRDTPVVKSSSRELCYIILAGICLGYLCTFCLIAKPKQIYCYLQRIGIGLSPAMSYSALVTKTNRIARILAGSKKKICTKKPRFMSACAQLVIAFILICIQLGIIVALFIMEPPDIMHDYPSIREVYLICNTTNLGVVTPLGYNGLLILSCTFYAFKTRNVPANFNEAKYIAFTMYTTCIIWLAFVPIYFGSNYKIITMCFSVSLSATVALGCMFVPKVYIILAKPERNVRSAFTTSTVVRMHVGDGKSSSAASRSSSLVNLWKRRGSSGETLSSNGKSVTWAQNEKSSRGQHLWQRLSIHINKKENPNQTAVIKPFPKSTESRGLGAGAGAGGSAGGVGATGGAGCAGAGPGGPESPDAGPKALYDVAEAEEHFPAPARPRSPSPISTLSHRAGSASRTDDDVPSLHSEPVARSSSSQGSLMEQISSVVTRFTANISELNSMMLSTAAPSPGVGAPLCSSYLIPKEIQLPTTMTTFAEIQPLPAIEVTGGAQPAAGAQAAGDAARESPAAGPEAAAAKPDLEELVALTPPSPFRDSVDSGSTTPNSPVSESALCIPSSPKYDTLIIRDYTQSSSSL

One may read the Ki as the dissociation constant of the complex between target and ligand, obtained from inhibition or displacement. For the compound `CN(C(=O)c1ccc(C#Cc2ccnc(Cl)c2)cn1)C(C)(C)C` [Example 1, 5-(2-Chloro-pyridin-4-ylethynyl)-pyridine-2-carboxylic acid tert-butyl-methyl-amide], in experiment [1], the “EC50 (nM) mGlu5 PAM assay” value was “inactive” and the Activity profile entry is “NAM”. Further, the Ki in experiment [2] is 28 nM.

For `CN(C(=O)c1ccc(C#Cc2cccc(Cl)c2)cn1)C(C)(C)C` [Example 2, 5-(3-Chloro-phenylethynyl)-pyridine-2-carboxylic acid tert-butyl-methyl-amide], in experiment [1], the “EC50 (nM) mGlu5 PAM assay” value was “inactive” and the Activity profile entry was “NAM”. Moreover, in experiment [2], the Ki came to 15 nM.

Regarding `CN(C(=O)c1ccc(C#Cc2cccc(F)c2)cn1)C(C)(C)C` [Reference compound 1, reference compound], in experiment [1], the Activity profile result was “PAM”. In experiment [2], the Ki was 29 nM.

Turning to `CN(C(=O)c1ccc(C#Cc2cncc(Cl)c2)cn1)C(C)(C)C` [Reference compound 2, reference compound], in experiment [1], the Activity profile entry is “PAM”. The Ki in experiment [2] amounted to 42 nM.

Turning to `CC(C)(NC(=O)c1ccc(C#Cc2ccnc(Cl)c2)cn1)C(F)(F)F` [Reference compound 3, reference compound], the Activity profile result in experiment [1] is “PAM”. For the same compound, in experiment [2], the Ki was determined as 58 nM.

Regarding `CN(C(=O)c1ccc(C#Cc2cccc(F)c2)cn1)C(C)(C)C` [drawing 3], the “Efficacy [%]” value in experiment [1] is reported as 64%.

For `CN(C(=O)c1ccc(C#Cc2cncc(Cl)c2)cn1)C(C)(C)C` [drawing 4], the “Efficacy [%]” value in experiment [1] is listed as 33%.

With `CC(C)(NC(=O)c1ccc(C#Cc2ccnc(Cl)c2)cn1)C(F)(F)F` [drawing 5], in experiment [1], the “Efficacy [%]” value is reported as 80%.

With `CN(C(=O)c1ccc(C#Cc2ccnc(Cl)c2)cn1)C(C)(C)C` [drawing 6], in experiment [1], the “mGlu5 PAM EC50 [nM]” value is given as “Inactive”.

As for `CN(C(=O)c1ccc(C#Cc2cccc(Cl)c2)cn1)C(C)(C)C` [drawing 7], the “mGlu5 PAM EC50 [nM]” value in experiment [1] is “inactive”.
